# Measured values reported in patent US20230181485A1, “Uses and Formulations of Cannabinoids” (priority 2020, published 2023).
# Like-named read-outs stand apart in the source and are kept apart here.
# Columns and labels:
# [1] = system: activated memory T cell line; conditions: 1-5 μmol/l, cited from earlier work
# [2] = system: chemically induced acute hepatitis; conditions: 25 mg/kg; cited from earlier work
# human mononuclear cells = conditions: nanomolar or micromolar concentrations; cited from earlier work
# [3] = system: ischemia-reperfusion-induced kidney injury; conditions: 10 mg/kg after induced kidney injury; cited from earlier work
# [4] = system: CD83 dendritic cell activation marker; conditions: dendritic cells from individuals with HIV infection; cited from earlier work
# [5] = systemic exposure after i.p. and oral application in mice and rats (Deiana et al.); format: in vivo; conditions: 20 mg/kg, assuming dose-proportional plasma concentrations
# Procedure: A comparative investigation for systemic exposure after i.p. and oral application of CBD in mice and rats has shown that 120 mg/kg as a single dose leads to a maximum plasma concentration of 14,000 ng/ml in mice (S. Deiana et al. (2012). Plasma and brain pharmacokinetic profile of cannabidiol (CBD), cannabidivarine (CBDV), Delta(9)-tetrahydrocannabivarin (THCV) and cannabigerol (CBG) in rats and mice following oral and intraperitoneal administration and CBD action on obsessive-compulsive behaviour. Psychopharmacology (Berl) 219(3): 859-73).
# [6] = system: LPS-induced acute lung injury; conditions: cited from earlier work
# [7] = mice; 120 mg/kg single dose; cited from earlier work
# [8] = system: SARS-CoV-2 virus (isolate BetaCoV/Germany/BavPat1/2020 p. 1); experiment: antiviral assay, Vero E6 cells with SARS-CoV-2, focus forming units; format: cell-based; conditions: 24 h
# human neutrophils = conditions: cited from earlier work
# [9] = healthy rats, cited from earlier work
# [10] = cited from earlier work
# [11] = system: LPS-induced acute lung injury; conditions: 20 mg/kg, 6 h after LPS; cited from earlier work
# IL-6 secretion = conditions: majority of cellular models; cited from earlier work
# microglial cells = conditions: 1-16 μmol/l; cited from earlier work
# IL-6 receptor = target: T1, IL-6 receptor (Homo sapiens, UniProt P08887); conditions: preliminary clinical data; cited from earlier work
# T1 construct: host or cells: patients (in vivo)
# T1 sequence (P08887 20-468): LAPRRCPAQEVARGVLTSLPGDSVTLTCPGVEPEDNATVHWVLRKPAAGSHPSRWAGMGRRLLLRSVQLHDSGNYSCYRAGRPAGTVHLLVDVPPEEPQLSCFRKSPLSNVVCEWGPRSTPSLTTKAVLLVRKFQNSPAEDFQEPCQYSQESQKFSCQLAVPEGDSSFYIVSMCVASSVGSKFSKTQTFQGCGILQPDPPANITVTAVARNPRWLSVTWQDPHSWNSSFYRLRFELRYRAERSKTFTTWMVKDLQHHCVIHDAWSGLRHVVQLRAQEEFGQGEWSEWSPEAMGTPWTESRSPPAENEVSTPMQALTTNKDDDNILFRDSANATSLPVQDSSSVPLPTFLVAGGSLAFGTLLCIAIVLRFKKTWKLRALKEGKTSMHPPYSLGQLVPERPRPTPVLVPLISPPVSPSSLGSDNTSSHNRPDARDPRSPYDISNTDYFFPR
compound,measurement,setting,value
"C=C(C)[C@@H]1CCC(C)=C[C@H]1c1c(O)cc(CCCCC)cc1O [CBD, 2-[(1R,6R)-3-methyl-6-(1-methylethenyl)-2-cyclohexen-1-yl]-5-pentyl-1,3-benzenediol]",autoantigen-specific Th17 cell phenotype (IL-17),[1]; dose-dependently,reduced
same,IL-6 production and secretion,[1],decreased
same,production of IL-10,[1],increased
same,expression of MDSCs,[2],induces
same,"pro-inflammatory cytokines such as IL-2, TNF-α, and IL-6",[2],reduction
same,release of pro-inflammatory cytokines,human mononuclear cells,suppressed
same,effect on induced kidney injury (Treg17/Th17 levels),[3],renoprotective
same,CD83 dendritic cell activation marker,[4],suppresses
same,target peak exposure,[5],"2,300 ng/ml"
same,number of leukocytes including macrophages and neutrophils in bronchoalveolar lavage fluid,"[6]; 20 mg/kg, mice after LPS-induced lung inflammation",decreases
same,"total leukocytes migration, myeloperoxidase activity, pro-inflammatory cytokine production including TNF-α and IL-6 and vascular permeability","[6]; 0.3-80 mg/kg intraperitoneal, 60 minutes before LPS instillation",significantly decreased
same,dose at which effects reached a nearly maximum extent,"[6]; prophylactic application, intraperitoneal",20 mg/kg
same,maximum plasma concentration,[7],"14,000 ng/ml"
same,FFU values (viral activity of SARS-CoV-2 in vitro),[8]; 0.25-5 μM,reduce the FFU values in a dose dependent manner
same,IC50,"[8]; Severe acute respiratory syndrome coronavirus 2, Vero C1008, Vero E6 cells, 5 μM values excluded, read-out: IC50 of inhibition of viral activity",789 nM
same,migration of human neutrophils,human neutrophils,inhibits
same,numbers of NK cells and NKT cells,[9]; 2.5 mg/kg per day,increased
same,numbers of NK cells and NKT cells,[9]; 5 mg/kg per day,not affected
same,number of T cells including T helper cells and cytotoxic T cells and of B cells,[9]; daily 5 mg/kg,significantly reduced
same,log P,[10],about 6.1
same,"mechanical lung function, leukocyte migration, myeloperoxidase activity, vascular permeability, cytokines/chemokines",[11],improved mechanical lung function
same,effective concentration for suppressive effect on IL-6 secretion,IL-6 secretion,~5 µM
same,apoptosis in microglial cells,microglial cells,induces apoptosis
tocilizumab: humanized monoclonal antibody against the IL-6 receptor,clinical effect in patients with severe SARS-CoV-2 pneumonia,IL-6 receptor,beneficial effects
